Experiments:
[1] = molecular target: Bromodomain-containing protein 4 (Homo sapiens) (UniProt O60885); test: BRD4 SGC Tm panel (DSF); conditions: for ΔTm: Compound concentration 10.0 uM
[2] = molecular target: T1, Dual specificity mitogen-activated protein kinase kinase 6 (Homo sapiens) (UniProt P52564); test: MAP2K6 SGC Tm panel (DSF); conditions: for ΔTm: Compound concentration 10.0 uM
T1 sequence (whole entry): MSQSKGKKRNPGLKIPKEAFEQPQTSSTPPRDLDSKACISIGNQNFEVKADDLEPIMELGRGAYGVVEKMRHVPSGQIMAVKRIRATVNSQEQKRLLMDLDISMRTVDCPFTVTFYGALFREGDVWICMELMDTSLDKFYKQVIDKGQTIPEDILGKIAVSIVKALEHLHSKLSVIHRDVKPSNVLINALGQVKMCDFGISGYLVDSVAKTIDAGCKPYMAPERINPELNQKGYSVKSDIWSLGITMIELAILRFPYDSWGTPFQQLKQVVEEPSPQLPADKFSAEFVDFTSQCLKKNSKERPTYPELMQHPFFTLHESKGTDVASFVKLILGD

[3] = molecular target: T2, Mitogen-activated protein kinase 15 (Homo sapiens) (UniProt Q8TD08); test: MAPK15 SGC Tm panel (DSF); conditions: for ΔTm: Compound concentration 10.0 uM
T2 sequence (whole entry): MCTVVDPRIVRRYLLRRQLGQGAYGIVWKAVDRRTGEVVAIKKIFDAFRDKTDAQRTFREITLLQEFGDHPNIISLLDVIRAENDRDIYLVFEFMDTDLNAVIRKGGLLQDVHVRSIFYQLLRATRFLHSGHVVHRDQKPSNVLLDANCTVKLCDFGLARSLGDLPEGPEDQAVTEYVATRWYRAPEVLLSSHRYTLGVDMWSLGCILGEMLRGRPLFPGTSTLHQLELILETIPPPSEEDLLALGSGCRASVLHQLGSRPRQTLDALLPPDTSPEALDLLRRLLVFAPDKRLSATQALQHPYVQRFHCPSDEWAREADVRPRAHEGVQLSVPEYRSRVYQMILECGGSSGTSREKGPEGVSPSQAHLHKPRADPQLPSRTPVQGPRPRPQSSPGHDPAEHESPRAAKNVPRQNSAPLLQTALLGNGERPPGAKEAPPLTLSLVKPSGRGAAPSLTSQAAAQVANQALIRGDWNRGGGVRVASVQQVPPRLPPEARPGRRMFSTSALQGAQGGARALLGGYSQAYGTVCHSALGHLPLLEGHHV

[4] = molecular target: T3, Serine/threonine-protein kinase 3 (Homo sapiens) (UniProt Q13188); test: STK3 SGC Tm panel (DSF); conditions: for ΔTm: Compound concentration 10.0 uM
T3 sequence (whole entry): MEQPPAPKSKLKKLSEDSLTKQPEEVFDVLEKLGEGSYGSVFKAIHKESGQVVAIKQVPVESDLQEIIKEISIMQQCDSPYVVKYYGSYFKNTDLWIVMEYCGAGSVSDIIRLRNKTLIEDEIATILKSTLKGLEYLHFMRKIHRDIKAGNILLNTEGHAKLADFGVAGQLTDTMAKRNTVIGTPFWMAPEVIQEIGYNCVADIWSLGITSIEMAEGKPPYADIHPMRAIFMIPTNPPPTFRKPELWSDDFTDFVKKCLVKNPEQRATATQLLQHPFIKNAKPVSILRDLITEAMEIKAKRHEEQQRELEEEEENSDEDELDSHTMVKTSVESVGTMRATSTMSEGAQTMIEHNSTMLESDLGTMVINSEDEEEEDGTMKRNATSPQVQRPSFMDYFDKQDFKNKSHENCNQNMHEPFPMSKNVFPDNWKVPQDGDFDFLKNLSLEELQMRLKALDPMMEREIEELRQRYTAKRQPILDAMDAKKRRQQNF

[5] = molecular target: T4, Dual specificity protein kinase TTK (Homo sapiens) (UniProt P33981); test: TTK SGC Tm panel (DSF); conditions: for ΔTm: Compound concentration 10.0 uM
T4 sequence (whole entry): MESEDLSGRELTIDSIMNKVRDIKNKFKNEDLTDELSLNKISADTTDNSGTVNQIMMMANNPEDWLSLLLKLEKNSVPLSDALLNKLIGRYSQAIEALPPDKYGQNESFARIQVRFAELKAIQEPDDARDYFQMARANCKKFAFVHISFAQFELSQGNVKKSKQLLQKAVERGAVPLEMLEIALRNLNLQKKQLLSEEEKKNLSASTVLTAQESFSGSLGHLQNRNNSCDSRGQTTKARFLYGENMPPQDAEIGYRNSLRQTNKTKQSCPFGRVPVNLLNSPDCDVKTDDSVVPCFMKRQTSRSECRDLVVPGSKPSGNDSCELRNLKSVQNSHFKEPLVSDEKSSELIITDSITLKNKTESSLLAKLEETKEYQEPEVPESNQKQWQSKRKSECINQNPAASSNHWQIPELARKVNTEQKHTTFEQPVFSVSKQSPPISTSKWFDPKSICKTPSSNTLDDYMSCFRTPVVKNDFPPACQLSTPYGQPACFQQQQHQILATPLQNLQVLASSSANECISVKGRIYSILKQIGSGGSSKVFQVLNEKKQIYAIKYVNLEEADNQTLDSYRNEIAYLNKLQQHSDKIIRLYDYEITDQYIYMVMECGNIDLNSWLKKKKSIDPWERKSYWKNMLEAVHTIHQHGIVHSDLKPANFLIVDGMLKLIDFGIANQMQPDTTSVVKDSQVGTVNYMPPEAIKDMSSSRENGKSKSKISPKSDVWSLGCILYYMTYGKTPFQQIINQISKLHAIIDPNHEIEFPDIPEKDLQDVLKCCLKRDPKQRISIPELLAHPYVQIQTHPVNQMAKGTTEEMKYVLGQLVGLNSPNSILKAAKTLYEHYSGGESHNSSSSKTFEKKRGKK

[6] = molecular target: Serine/threonine-protein kinase WNK1 (Homo sapiens) (UniProt Q9H4A3); test: WNK1 SGC Tm panel (DSF); conditions: for ΔTm: Compound concentration 10.0 uM
Chain of Serine/threonine-protein kinase WNK1 (Homo sapiens) (Q9H4A3 whole entry, looked up): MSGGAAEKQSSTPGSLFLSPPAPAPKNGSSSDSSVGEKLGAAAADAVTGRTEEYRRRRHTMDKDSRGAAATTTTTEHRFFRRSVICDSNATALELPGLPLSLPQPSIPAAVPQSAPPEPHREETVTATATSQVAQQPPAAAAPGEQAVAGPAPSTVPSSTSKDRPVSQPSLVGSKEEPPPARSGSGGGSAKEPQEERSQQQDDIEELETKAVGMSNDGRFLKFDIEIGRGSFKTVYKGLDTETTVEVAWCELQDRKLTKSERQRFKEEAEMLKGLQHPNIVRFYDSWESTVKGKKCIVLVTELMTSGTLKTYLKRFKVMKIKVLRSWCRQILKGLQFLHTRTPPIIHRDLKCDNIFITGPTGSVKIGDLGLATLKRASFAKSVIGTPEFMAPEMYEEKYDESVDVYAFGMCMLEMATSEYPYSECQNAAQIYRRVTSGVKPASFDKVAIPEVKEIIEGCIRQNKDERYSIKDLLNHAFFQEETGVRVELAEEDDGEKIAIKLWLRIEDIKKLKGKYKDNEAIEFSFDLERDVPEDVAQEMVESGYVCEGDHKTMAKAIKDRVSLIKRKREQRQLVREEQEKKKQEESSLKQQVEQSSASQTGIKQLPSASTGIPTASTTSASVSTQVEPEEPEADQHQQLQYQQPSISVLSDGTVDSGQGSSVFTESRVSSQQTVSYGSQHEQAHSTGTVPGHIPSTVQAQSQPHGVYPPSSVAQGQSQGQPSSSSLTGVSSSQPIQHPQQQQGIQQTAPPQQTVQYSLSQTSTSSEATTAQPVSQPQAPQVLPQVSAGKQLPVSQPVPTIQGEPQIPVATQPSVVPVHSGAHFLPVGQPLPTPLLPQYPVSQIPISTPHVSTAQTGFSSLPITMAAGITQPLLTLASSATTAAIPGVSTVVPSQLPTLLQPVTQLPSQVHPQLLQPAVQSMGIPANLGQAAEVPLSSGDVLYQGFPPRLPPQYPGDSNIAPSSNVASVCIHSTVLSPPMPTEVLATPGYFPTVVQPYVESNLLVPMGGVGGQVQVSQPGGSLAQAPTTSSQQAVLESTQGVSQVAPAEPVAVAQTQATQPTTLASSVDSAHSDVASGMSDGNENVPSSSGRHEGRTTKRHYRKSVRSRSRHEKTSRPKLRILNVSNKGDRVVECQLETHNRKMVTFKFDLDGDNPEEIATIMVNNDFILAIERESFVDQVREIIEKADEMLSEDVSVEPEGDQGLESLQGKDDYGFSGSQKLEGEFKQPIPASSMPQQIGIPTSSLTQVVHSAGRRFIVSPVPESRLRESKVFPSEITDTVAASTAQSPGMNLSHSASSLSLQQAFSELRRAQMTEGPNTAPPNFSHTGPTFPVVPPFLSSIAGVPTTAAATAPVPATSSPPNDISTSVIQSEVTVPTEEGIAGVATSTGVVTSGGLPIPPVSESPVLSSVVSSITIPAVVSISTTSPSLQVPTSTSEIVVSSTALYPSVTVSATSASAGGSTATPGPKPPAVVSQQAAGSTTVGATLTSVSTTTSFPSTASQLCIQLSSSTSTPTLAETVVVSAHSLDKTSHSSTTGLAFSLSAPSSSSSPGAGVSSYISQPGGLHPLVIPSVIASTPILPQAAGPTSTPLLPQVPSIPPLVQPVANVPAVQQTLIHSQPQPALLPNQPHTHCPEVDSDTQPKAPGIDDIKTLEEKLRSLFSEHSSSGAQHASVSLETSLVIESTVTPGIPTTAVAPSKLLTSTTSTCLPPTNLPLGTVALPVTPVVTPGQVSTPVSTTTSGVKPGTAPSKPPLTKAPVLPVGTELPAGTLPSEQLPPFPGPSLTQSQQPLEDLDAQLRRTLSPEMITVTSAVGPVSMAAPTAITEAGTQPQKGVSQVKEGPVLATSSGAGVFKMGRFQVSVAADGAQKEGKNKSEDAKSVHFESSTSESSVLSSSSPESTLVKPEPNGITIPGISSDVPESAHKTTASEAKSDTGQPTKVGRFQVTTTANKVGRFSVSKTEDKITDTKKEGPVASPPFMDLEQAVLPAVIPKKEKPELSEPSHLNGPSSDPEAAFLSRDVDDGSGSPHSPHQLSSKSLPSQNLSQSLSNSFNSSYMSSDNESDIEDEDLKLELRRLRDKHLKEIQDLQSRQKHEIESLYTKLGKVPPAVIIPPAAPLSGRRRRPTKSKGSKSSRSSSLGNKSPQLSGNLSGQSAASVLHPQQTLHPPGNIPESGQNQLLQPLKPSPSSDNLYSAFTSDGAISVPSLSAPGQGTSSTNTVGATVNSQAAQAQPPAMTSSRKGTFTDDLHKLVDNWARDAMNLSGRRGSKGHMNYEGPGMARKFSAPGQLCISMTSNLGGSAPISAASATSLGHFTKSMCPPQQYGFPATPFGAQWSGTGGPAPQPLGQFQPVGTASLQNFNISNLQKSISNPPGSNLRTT

[7] = molecular target: Histamine H3 receptor (Homo sapiens) (UniProt Q9Y5N1); conditions: Compound concentration 10.0 uM
Chain of Histamine H3 receptor (Homo sapiens) (Q9Y5N1 whole entry): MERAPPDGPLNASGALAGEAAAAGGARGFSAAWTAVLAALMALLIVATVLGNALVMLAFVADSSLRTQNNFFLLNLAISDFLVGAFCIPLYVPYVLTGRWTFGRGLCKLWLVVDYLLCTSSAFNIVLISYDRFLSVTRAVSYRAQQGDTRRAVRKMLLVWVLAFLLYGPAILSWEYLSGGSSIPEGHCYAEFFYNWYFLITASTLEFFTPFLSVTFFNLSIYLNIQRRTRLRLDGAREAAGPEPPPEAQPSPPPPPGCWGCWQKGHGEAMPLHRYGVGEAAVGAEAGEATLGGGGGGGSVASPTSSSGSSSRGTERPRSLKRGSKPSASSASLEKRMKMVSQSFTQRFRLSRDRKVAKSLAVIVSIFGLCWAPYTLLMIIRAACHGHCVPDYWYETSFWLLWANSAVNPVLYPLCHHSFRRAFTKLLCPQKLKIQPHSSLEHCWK

[8] = molecular target: T5, Muscarinic acetylcholine receptor M4 (Homo sapiens) (UniProt P08173); conditions: Compound concentration 10.0 uM
T5 sequence (whole entry): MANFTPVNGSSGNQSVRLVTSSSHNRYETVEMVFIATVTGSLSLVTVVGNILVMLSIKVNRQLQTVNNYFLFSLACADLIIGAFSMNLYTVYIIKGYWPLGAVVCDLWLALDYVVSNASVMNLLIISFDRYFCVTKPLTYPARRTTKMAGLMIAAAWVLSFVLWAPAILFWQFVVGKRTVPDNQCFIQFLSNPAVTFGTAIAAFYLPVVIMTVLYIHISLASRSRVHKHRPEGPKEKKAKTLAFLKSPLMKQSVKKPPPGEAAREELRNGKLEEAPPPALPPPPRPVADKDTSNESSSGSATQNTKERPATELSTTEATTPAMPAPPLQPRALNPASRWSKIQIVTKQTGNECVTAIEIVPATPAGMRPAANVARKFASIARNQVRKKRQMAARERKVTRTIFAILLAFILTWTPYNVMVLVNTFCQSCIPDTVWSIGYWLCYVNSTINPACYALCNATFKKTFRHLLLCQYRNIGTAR

Row | Compound | delta Tm Staurosporine positive control [1] | ΔTm [1] | delta Tm Staurosporine positive control [2] | ΔTm [2] | delta Tm Staurosporine positive control [3] | ΔTm [3] | delta Tm Staurosporine positive control [4] | ΔTm [4] | delta Tm Staurosporine positive control [5] | ΔTm [5] | delta Tm Staurosporine positive control [6] | ΔTm [6] | inhibition [7] [%] | inhibition [8] [%]
1 | CCC[C@@H]1CNCc2c1[nH]c(=O)c(C#N)c2N1CCC2(CC1)CC2 | 2.04 | 0.857 | 12.8 | -0.119 | 16.4 | 0.0332 | 16.5 | -0.767 | 7.9 | 0.316 | 2.2 | -0.301 | -1.01 | -5.05
2 | CCC[C@H]1CNCc2c1[nH]c(=O)c(C#N)c2N1CCC2(CC1)CC2 | 2.04 | 0.19 | 12.8 | -0.0944 | 16.4 | -0.258 | 16.5 | -0.737 | 7.9 | 0.222 | 2.2 | -0.456 | -0.66 | -3.14

Source: ChEMBL document CHEMBL5303765, “Data for DCP probe BAY-7081” (2023)
